Measurements from ChEMBL document CHEMBL5696444 (Nat Commun, 2017).

Columns and labels:
[1] = target: Mitogen-activated protein kinase 3 (Homo sapiens) (UniProt P27361); assay: Inhibition of MAPK3 (unknown origin) at 1000 nM in the presence of ATP by Kinome scan method relative to control
[2] = tested on: HCT-116; assay: Induction of cell cycle arrest in human HCT-116 cells assessed as sub G0/G1 phase at 0.1 uM incubated for 24 hrs by flow cytometry analysis (Rvb=2.5%); format: functional
[3] = tested on: HCT-116; assay: Induction of cell cycle arrest in human HCT-116 cells assessed as S phase at 5 uM incubated for 24 hrs by flow cytometry analysis (Rvb=46.4%); format: functional

Sequence of Mitogen-activated protein kinase 3 (Homo sapiens) (P27361 whole entry): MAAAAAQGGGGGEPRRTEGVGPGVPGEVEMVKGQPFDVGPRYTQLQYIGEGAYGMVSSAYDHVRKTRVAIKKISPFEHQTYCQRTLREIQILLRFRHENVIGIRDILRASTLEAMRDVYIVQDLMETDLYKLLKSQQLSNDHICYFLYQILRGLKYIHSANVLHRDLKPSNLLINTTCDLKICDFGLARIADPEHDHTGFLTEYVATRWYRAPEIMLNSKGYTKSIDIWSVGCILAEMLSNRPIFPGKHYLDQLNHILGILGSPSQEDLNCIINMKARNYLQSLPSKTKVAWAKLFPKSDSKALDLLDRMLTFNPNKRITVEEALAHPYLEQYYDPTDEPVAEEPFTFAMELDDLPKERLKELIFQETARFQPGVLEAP

`CN1CCN(C(=O)C(C)(C)c2ccc(C(=O)Nc3cn4cc(-c5ccncc5)ccc4n3)cc2)CC1` [T3-CLK] was tested, and the inhibition [1] was 6%, the Activity [2] was 2.8% and the Activity [3] was 45.5%.
